Patent US9895363B2, “Methods for modulating function of proliferating cell nuclear antigen (PCNA) and treating cancer with PCNA-targeting compounds” (University of Cincinnati, priority 2010, dated 2018)
Like-named read-outs stand apart in the source and are kept apart here.

Experiments:
A375 melanoma cells = assay: Growth inhibition by MTT staining, A375; type: cell-based; settings: A-375, 96 h, Human, treated four days
Description: (§1) Growth inhibitory effects of PCNA-I1 and PCNA-I2 were assessed in human cancer cell lines, mouse cancer cell lines, immortalized mouse cell lines, and human primary cell lines. Specifically, growth inhibitory effects of PCNA-I1 and PCNA-I2 were assessed using MTT staining in the following cells lines: 1) human cancer cell lines including LNCaP (androgen receptor […]), 22Rv1, DU-145, LAPC-4, and PC-3 (androgen receptor […]) prostate cancer cells; MCF-7 and T47D breast cancer cells; A375 and MDA-MB435 melanoma cells; 2) mouse cancer cell lines including TRAMP-C2RE3 prostate cancer cells, B16 and K1735 melanoma cells, UV2237 fibrosarcoma cells, and CT-26 colon cancer cells; 3) immortalized mouse lung cell lines and mouse endothelial cell lines; and 4) primary human cell lines including umbilical endothelial cells (HUVEC, PromoCell, Heidelberg, Germany), primary bone marrow mesenchymal stem cells (HuMSC, PromoCell), primary human mammary epithelial cells (HuBrEC, Lonza, Walkersville, Md.), primary human prostate epithelial cells (HuPrEC, Lonza), and primary mouse spleen lymphocytes (isolated in this laboratory), and primary mouse bone marrow stromal cells (isolated in this laboratory). […]
(§2) IC50 values were derived from growth inhibition curves. […] Inhibition of cell growth was calculated using the formula: growth inhibition (%)=(1−A570 of treated/A570 of control)×100. […]

[1] = Toxicity evaluation in tumor-bearing mice; type: in vivo
Description: The therapeutic effects of PCNA-I1 were evaluated in LNCaP cells and 22Rv1 tumor models. LNCaP or 22Rv1 cells (1-2×10^6 cells in gelfoam) were implanted into the subcutis of male nude mice. From four to five days later, tumor-bearing mice were intraperitoneally injected with 10 mg/kg or 50 mg/kg of PCNA-I1. The therapy was continued at three times/week until termination of experiments. Control and treated tumor-bearing mice were monitored daily. Mouse body weight was recorded for toxicity evaluation twice a week and tumor size was measured using calipers twice a week. The experiments were terminated when mice in control groups were moribund. Additionally, to further evaluate potential liver and renal toxicity of PCNA-I1, the blood of tumor-bearing mice were sampled after the treatment with PCNA-I1 for 8 weeks.

MDA-MB435 melanoma cells = assay: Growth inhibition by MTT staining, MDA-MB435; type: cell-based; settings: MDA-MB-435, 96 h, Human, treated four days
Description: as §1, §2

[2] = tested on: primary human prostate epithelial cells; assay: Growth inhibition, prostate epithelial cells; type: cell-based; settings: Epithelial cell, normal cells
Description: as §1, §2

LNCaP cells = assay: FACS analysis, LNCaP; type: cell-based, Human; settings: particularly at 10 μM; FIG. 16
Description: Fluorescence-activated cell sorting (FACS) analysis was performed on both PC-3 cells and LNCaP cells using PCNA-I1. Specifically, cells were treated with 1 or 10 μM PCNA-I1 and sampled for the flow cytometry analysis at 24 H, 48 H, and 72 H. Expression of DNA damage and apoptosis-related proteins in PC-3 cells and LNCaP cells was also determined. Cisplatin, a well-known drug that induces DNA damage and apoptosis, was included in the experiment. LNCaP cells were treated for 6 H, 12 H, or 18 H with 10 μM PCNA-I1, 10 μM cisplatin, or both.

[3] = tested on: Prostate Endothelial cells (Mu-Pr-Endo); assay: Growth inhibition, mouse prostate endothelial cells; type: cell-based; settings: Endothelial cell
Description: as §1, §2

GFP-PCNA = GFP-PCNA chromatin association, fluorescence microscopy; type: cell-based, Human; settings: PC-3 transfected with pGFP-PCNA; 4 H, 0.5 μM PCNA-I1 or 2 μM PCNA-I2; FIG. 11
Description: Additionally, PC-3 cells were transfected for 24 H with pGFP-PCNA. The cells were then treated for 4 H with 0.5 μM of PCNA-I1 or 2 μM of PCNA-I2. The intact GFP-PCNA expressing cells were observed under a fluorescent microscope and recorded. After treatment with a buffer with 0.5% NP-40 buffer B, the cells were examined and recorded.

[4] = tested on: LAPC-4 prostate cancer cells; assay: Growth inhibition by MTT staining, LAPC-4; type: cell-based; settings: LAPC4, 96 h, Human tumor cells, treated four days
Description: as §1, §2

Cc1ccsc1C(=O)N/N=C/c1ccc2ccccc2c1O [PCNA-I1]
IC50 (A375 melanoma cells): 0.29 µM | Body weight of tumor-bearing mice ([1]; 10 or 50 mg/kg i.p. every other day, up to 8 weeks): did not cause significant reduction in the body weight | Aspartate transaminase (AST or SGOT) ([1]; treatment for 8 weeks, FIG. 21): not significantly altered | Blood urea nitrogen (BUN) ([1]; treatment for 8 weeks, FIG. 21): not significantly altered | Serum alanine transaminase (ALT or SGPT) ([1]; treatment for 8 weeks, FIG. 21): not significantly altered | IC50 (MDA-MB435 melanoma cells): 0.29 µM | IC50 [2]: 2 µM | Apoptosis, LNCaP (sub-G1 population) (LNCaP cells): induced significant apoptosis | IC50 ([3]; Mouse, Blood Vessel, normal cells, read-out: IC50 Values, Prostate Endothelial): 0.68 µM | IC50 ([3]; Mus musculus, FIG. 2(C), read-out: IC50, Mu-Pr-Endo): 0.677 µM | Level of chromatin-associated GFP-PCNA (GFP-PCNA): reduced the level of chromatin-associated GFP-PCNA | Total intensity of GFP-PCNA (GFP-PCNA): did not significantly alter the total intensity of GFP-PCNA | IC50 [4]: 0.3 µM
